From patent US11597708B2, “Inhibitors of heat shock factors and uses thereof” (HSF Pharmaceuticals SA, priority 2016, dated 2023)
Where two headings read alike, the source gives them in different places.

Key:
[1] = target: T1, HSF1 (Homo sapiens, UniProt Q00613); assay: Z74 cell-based reporter assay: heat-induced RLuc expression controlled by endogenous HSF1; settings: for IC50: inhibition of HSF1 activity [RLuc]; for inhibition at 12.5 µM: 12.5 μM IHSF, negative values marked *: compound enhanced rLuc activity, read-out: Inhibition of HSF1 activity at 12.5 μM IHSF [RLuc] (%)
T1 construct: functionally linked to an hsp70b promoter and therefore controlled by endogenous HSF1; endogenous in cells; host or cells: HeLa cells / HeLa-derived cell line Z74
T1 sequence (Q00613 1-529): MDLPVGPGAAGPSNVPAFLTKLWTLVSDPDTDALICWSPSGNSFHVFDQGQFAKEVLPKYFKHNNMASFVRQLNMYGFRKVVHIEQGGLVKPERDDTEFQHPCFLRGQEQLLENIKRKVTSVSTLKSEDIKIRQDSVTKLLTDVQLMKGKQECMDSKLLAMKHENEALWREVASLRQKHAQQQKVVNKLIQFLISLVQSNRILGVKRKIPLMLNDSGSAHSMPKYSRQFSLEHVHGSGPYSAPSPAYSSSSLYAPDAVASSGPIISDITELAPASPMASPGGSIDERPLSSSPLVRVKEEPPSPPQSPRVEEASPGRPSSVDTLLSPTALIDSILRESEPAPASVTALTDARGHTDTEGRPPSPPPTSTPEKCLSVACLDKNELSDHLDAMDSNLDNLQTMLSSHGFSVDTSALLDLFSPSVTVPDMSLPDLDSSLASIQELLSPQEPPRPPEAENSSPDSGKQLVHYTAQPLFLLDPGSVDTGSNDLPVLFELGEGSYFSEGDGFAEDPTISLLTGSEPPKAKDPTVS
Outline: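 HeLa-derived Z74 cells carry LexA-HSF1-driven firefly luciferase and hsp70b promoter-driven Renilla luciferase, the latter under endogenous HSF1. Cells were treated with compound at 12.5 or 25 μM for 2 h, heated to 43.0 °C for 30 min, then kept 6 h at 37 °C. Both luciferases were read by dual-luciferase luminescence.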

[2] = system: hspa1a; assay: Reverse transcription real-time PCR of hspa1a mRNA in Z74 cells; type: cell-based, human; settings: heat-treated, somewhat less sensitive than rluc gene
Protocol: FIG. 4. (A) rluc, hspa7 and hspa1a mRNA levels in Z74 cells mock-exposed (−) or exposed to the indicated concentrations of compounds 058 or 115 for 2 hours, heat-treated (HS) at 43° C. for 30 min and post-incubated for one hour at 37° C. mRNA levels were quantified by reverse transcription-real-time PCR. (B) HSP72 levels in HeLa cells mock-exposed (−) or exposed to the indicated concentrations of compounds 058 or 115 for 2 hours, heat-treated (HS) at 43° C. for 30 min and post-incubated for 6 hours at 37° C. HSP72 levels were estimated by HSP72 WB. GAPDH levels served as “loading controls”.
To assess the transcriptional effects of the IHSF, cultures of Z74 cells were exposed for two hours to IHSF 058 or IHSF 115 at different concentrations, or to vehicle. Following heat treatment and a one-hour post-incubation at 37° C., extracts were prepared, and polyadenylated rluc, hsp70b (hspa7) and hspa1a RNA was quantified by reverse transcription and real-time PCR. […] IHSF 115 had somewhat more important effects than IHSF 058. […] We tend to discount the possibility that the latter data report effects on transcript stability.

[3] = Aqueous solubility (statement); type: physicochemical
[4] = Z74 cells, 25 μM IHSF, 2 h exposure, 43° C. 30 min, 6 h at 37° C., read-out: Inhibition of HSF1 activity at 25 μM IHSF [RLuc] (%)

## CCOC(=O)/C=C/C(=O)Nc1nccs1 [IHSF 001, (E)-ethyl 4-oxo-4-(thiazol-2-ylamino)but-2-enoate]
[1]; IHSF 001 tested at 25 μM, Experiment No. 1, read-out: Inhibition of HSF1 activity [RLuc] (%)
  inhibition at 25 µM: 66%
[1]; IHSF 001 tested at 25 μM, Experiment No. 2, read-out: Inhibition of HSF1 activity [RLuc] (%)
  inhibition at 25 µM: 69%
[1]; IHSF 001 tested at 25 μM, Experiment No. 3, read-out: Inhibition of HSF1 activity [RLuc] (%)
  inhibition at 25 µM: 69%
[1]; IHSF 001 tested at 25 μM, Experiment No. 4, read-out: Inhibition of HSF1 activity [RLuc] (%)
  inhibition at 25 µM: 67%
[1]; IHSF 001 tested at 25 μM, Experiment No. 5, read-out: Inhibition of HSF1 activity [RLuc] (%)
  inhibition at 25 µM: 68%
[1]; IHSF 001 tested at 25 μM, Experiment No. 6, read-out: Inhibition of HSF1 activity [RLuc] (%)
  inhibition at 25 µM: 63%
[1]; IHSF 001 tested at 25 μM, Experiment No. 7, read-out: Inhibition of HSF1 activity [RLuc] (%)
  inhibition at 25 µM: 56%
[1]; IHSF 001 tested at 25 μM, Experiment No. 8, read-out: Inhibition of HSF1 activity [RLuc] (%)
  inhibition at 25 µM: 51%
[1]; IHSF 001 tested at 25 μM, Experiment No. 9, read-out: Inhibition of HSF1 activity [RLuc] (%)
  inhibition at 25 µM: 45%
[1]; Z74 cells
  IC50: 17.8 µM
  inhibition at 12.5 µM: 37%
[1]; [4]
  inhibition at 25 µM: 64%

## CCOC(=O)/C=C/C(=O)Nc1ncc(-c2cccnc2)s1 [IHSF 058, (E)-3-(5-Pyridm-3-yl-thiazol-2-ylcarbamoyl)-acrylic acid ethyl ester]
[2]
  hspa1a transcript accumulation: Dose-dependent inhibitory effects
[3]
  aqueous solubility: limited
[1]; Z74 cells
  IC50: 4.8 µM
  inhibition at 12.5 µM: 79%
[1]; [4]
  inhibition at 25 µM: 97%

## CN(C(=O)/C=C/C1=NCCCO1)c1ncc(-c2cccnc2)s1 [IHSF 115, (E)-3-(5,6-Dihydro-4H-[1,3]oxazin-2-yl)-N-methyl-N-(5-pyridin-3-yl-thiazol-2-yl)-acrylamide]
[2]
  hspa1a transcript accumulation: Dose-dependent inhibitory effects
[3]
  aqueous solubility: limited
[1]; Z74 cells
  IC50: 0.7 µM
  inhibition at 12.5 µM: 99%
[1]; [4]
  inhibition at 25 µM: 100%
[1]; most potent IHSF
  activity in the Z74-based screening assay: substantial activity in the high nanomolar range
